65 compounds from patent US9688669B2, “Oxazolidinones as modulators of mGluR5” (BRISTOL-MYERS SQUIBB COMPANY, priority 2013, dated 2017) can be followed below.

The test deals with human mGluR5A (Homo sapiens (Human), UniProt P41594). Nature of the test: mGluR5 FLIPR Assay. Type of test: cell-based. To be noted: positive modulator activity, HEK293 (ZF) cells with human mGluR5A and rat GLAST, Ca++ response to ~EC10 l-glutamate. On the procedure: HEK293 (ZF) cells stably transfected with human mGluR5A (pIRES neo) and the rat glutamate-aspartate transporter (GLAST; pIRES puro) are grown in a monolayer culture at 37° C. in 5% CO2 and fed with Minimum Essential Medium (MEM) supplemented with 10% dialysed fetal bovine serum. […] Plates are incubated in dye at 37° C. in 5% CO2 for 60 minutes prior to delivery of test compounds in assay buffer. Test compounds are incubated with cells in the presence of dye for 10 minutes prior to being read on the FLIPR platform (Molecular Devices). A Ca^++ signal is induced in the assay plates via the delivery of an ˜EC10 concentration of the endogenous agonist 1-glutamate; images are acquired at 1 Hz for 100 seconds post-delivery of agonist stimulus. Positive modulator activity (i.e. the ability of test compounds to increase the Ca^++ response to a sub-maximal concentration of agonist) is normalized to a saturating concentration of a known mGluR5 PAM run in each assay plate. An EC50 concentration of test compounds is derived from 4-parameter logistic curve fits of transformed fluoresence data via proprietary software suite.
Sequence of human mGluR5A (P41594 other isoform, or with tags, fused parts or gaps): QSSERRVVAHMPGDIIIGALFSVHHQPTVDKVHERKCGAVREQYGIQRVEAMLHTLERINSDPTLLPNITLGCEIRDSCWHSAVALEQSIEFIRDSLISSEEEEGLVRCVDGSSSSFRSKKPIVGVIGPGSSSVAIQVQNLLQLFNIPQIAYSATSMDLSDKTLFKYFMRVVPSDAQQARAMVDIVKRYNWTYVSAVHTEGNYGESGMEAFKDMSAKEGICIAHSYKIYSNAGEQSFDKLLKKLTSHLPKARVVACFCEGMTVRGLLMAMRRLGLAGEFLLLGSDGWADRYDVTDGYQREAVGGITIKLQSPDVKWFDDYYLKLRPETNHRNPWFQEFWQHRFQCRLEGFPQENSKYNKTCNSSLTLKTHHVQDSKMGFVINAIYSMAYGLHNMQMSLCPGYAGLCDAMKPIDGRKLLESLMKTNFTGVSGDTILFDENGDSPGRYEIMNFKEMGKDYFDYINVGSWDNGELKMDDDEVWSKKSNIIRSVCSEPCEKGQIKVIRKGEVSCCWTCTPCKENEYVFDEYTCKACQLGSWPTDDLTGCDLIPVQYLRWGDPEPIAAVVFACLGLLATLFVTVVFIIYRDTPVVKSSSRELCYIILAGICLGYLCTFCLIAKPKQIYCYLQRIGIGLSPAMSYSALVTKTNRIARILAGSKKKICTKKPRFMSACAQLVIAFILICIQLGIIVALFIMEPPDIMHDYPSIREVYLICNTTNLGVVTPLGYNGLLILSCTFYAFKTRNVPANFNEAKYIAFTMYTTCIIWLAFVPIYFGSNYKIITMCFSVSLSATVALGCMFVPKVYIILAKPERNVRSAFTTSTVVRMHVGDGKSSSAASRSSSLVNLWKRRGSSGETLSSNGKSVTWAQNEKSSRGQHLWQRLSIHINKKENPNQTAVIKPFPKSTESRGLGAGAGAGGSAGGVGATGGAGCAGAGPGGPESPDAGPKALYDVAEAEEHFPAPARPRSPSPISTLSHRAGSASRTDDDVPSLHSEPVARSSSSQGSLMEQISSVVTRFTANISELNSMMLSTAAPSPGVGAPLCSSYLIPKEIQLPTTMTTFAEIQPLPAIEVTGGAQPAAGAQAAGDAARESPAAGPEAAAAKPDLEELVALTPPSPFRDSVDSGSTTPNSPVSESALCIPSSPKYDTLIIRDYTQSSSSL
Broadly, the EC50 is the concentration giving half of the maximal effect. A lower EC50 goes with a more potent agent. `CC(O)CCC#Cc1cncc([C@H]2NC(=O)O[C@@H]2c2cccc(F)c2)c1` (single isomer, unassigned) [Example 7] had an EC50 of 5.9 nM. Compound `CCCC(O)C#Cc1cncc([C@H]2NC(=O)O[C@@H]2c2cccc(F)c2)c1` (single isomer, unassigned) [Example 15] had a 50% effective concentration (EC50) of 20.4 nM. In the case of `CCC(O)CC#Cc1cncc([C@H]2NC(=O)O[C@@H]2c2cccc(F)c2)c1` (single isomer, unassigned) [Example 19], a half-maximal effect (EC50) was put at 27.6 nM.

In turn, `CCC(O)CC#Cc1cncc([C@H]2NC(=O)O[C@@H]2c2cccc(F)c2)c1` (single isomer, unassigned) [Example 20] yielded an EC50 of 60.8 nM. On to `CCCC(O)C#Cc1cncc([C@H]2NC(=O)O[C@@H]2c2cccc(F)c2)c1` (single isomer, unassigned) [Example 22], for which a half-maximal response (EC50) required 32.3 nM. The compound `O=C1N[C@H](c2cncc(C#CC(O)C3CC3)c2)[C@@H](c2cccc(F)c2)O1` (single isomer, unassigned) [Example 57] returned an EC50 of 77.3 nM. In turn, `O=C1N[C@H](c2cncc(C#CC(O)C3CC3)c2)[C@@H](c2cccc(F)c2)O1` (single isomer, unassigned) [Example 59] showed an EC50 of 226 nM. For the compound `O=C1N[C@H](c2cncc(C#CC(O)CC3CC3)c2)[C@@H](c2cccc(F)c2)O1` (single isomer, unassigned) [Example 73], the EC50 is 27.9 nM. The same measure for `O=C1N[C@H](c2cncc(C#CC(O)CC3CC3)c2)[C@@H](c2cccc(F)c2)O1` (single isomer, unassigned) [Example 74]: 27.4 nM. As to `O=C1N[C@H](c2cncc(C#CCC3CCC3)c2)[C@@H](c2cccc(F)c2)O1` [Example 1, (4R,5R)-4-(5-(3-Cyclobutylprop-1-yn-1-yl)pyridin-3-yl)-5-(3-fluorophenyl)oxazolidin-2-one], the midpoint of the response, the EC50, lay at 1.7 nM. `CCSCC#Cc1cncc([C@H]2NC(=O)O[C@@H]2c2cccc(F)c2)c1` [Example 2]: the EC50 came out at 2 nM. Turning to `CCCCC#Cc1cncc([C@H]2NC(=O)O[C@@H]2c2cccc(F)c2)c1` [Example 3], it took 2.2 nM to reach a half-maximal effect (EC50). The compound `O=C1N[C@H](c2cncc(C#CCC3CC3)c2)[C@@H](c2cccc(F)c2)O1` [Example 4] displayed a concentration giving a half-maximal response (EC50) of 3.6 nM. `CC(C)CCC#Cc1cncc([C@H]2NC(=O)O[C@@H]2c2cccc(F)c2)c1` [Example 5] came in with an EC50 of 4.7 nM. On to `CCCC#Cc1cncc([C@H]2NC(=O)O[C@@H]2c2cccc(F)c2)c1` [Example 6], for which it took 5.2 nM to reach a half-maximal effect (EC50). For `CC(O)CCC#Cc1cncc([C@H]2NC(=O)O[C@@H]2c2cccc(F)c2)c1` (some centres unmarked) [Example 8], the 50% effective concentration (EC50) worked out at 12.3 nM.

`CC(C)CC#Cc1cncc([C@H]2NC(=O)O[C@@H]2c2cccc(F)c2)c1` [Example 9] came in with an EC50 of 11.4 nM. `CC(O)CCC#Cc1cncc([C@H]2NC(=O)O[C@@H]2c2cccc(F)c2)c1` (some centres unmarked) [Example 10] yielded an EC50 of 12.6 nM.

`O=C1N[C@H](c2cncc(C#CCC3CCOCC3)c2)[C@@H](c2cccc(F)c2)O1` [Example 11] yielded an EC50 of 13.6 nM. The result for `CCCC(O)C#Cc1cncc([C@H]2NC(=O)O[C@@H]2c2cccc(F)c2)c1` (some centres unmarked) [Example 12] reads 15.4 nM; that for `O=C1N[C@H](c2cncc(C#CCC3CCCCC3)c2)[C@@H](c2cccc(F)c2)O1` [Example 13], 16.4 nM. The result for `O=C1N[C@H](c2cncc(C#CC(O)C3CCC3)c2)[C@@H](c2cccc(F)c2)O1` (some centres unmarked) [Example 14] reads 16.6 nM; that for `CCC(C)(O)C#Cc1cncc([C@H]2NC(=O)O[C@@H]2c2cccc(F)c2)c1` (some centres unmarked) [Example 16], over 3230 nM.

In turn, `COCCC#Cc1cncc([C@H]2NC(=O)O[C@@H]2c2cccc(F)c2)c1` [Example 17] had an EC50 of 23.2 nM.

`CCC(O)CC#Cc1cncc([C@H]2NC(=O)O[C@@H]2c2cccc(F)c2)c1` (some centres unmarked) [Example 21] showed a 50% effective concentration (EC50) of 29.5 nM. On to `CCCC(C)C#Cc1cncc([C@H]2NC(=O)O[C@@H]2c2cccc(F)c2)c1` (some centres unmarked) [Example 23], for which the response was half-maximal at 43.6 nM (EC50).

Turning to `O=C1N[C@H](c2cncc(C#CCOc3ccccc3)c2)[C@@H](c2cccc(F)c2)O1` [Example 24], the EC50 came to 43.9 nM. `CC(C)CC(O)C#Cc1cncc([C@H]2NC(=O)O[C@@H]2c2cccc(F)c2)c1` (some centres unmarked) [Example 25] yielded an EC50 of 45.2 nM. `Cc1ccn(CC#Cc2cncc([C@H]3NC(=O)O[C@@H]3c3cccc(F)c3)c2)n1` [Example 26]: the midpoint of the response, the EC50, lay at 46.2 nM. `O=C1N[C@H](c2cncc(C#CCn3cc(Cl)cn3)c2)[C@@H](c2cccc(F)c2)O1` [Example 27] yielded an EC50 of 48.2 nM. As to `CC(C)C(O)C#Cc1cncc([C@H]2NC(=O)O[C@@H]2c2cccc(F)c2)c1` (some centres unmarked) [Example 28], the 50% effective concentration (EC50) turned out to be 76.9 nM. For the compound `O=C1N[C@H](c2cncc(C#CCC3CC3(F)F)c2)[C@@H](c2cccc(F)c2)O1` (some centres unmarked) [Example 29], the response was half-maximal at 77.5 nM (EC50). The same measure for `O=C1N[C@H](c2cncc(C#CC(O)C3CCCCC3)c2)[C@@H](c2cccc(F)c2)O1` (some centres unmarked) [Example 30]: 85.1 nM; for `Cc1ccnn1CC#Cc1cncc([C@H]2NC(=O)O[C@@H]2c2cccc(F)c2)c1` [Example 31]: 108 nM; for `CCC(O)C#Cc1cncc([C@H]2NC(=O)O[C@@H]2c2cccc(F)c2)c1` (some centres unmarked) [Example 32]: 116 nM.

`O=C1N[C@H](c2cncc(C#CCn3ccnc3)c2)[C@@H](c2cccc(F)c2)O1` [Example 33] showed a 50% effective concentration (EC50) of 134 nM. Consider `CC(C)(C)OCC#Cc1cncc([C@H]2NC(=O)O[C@@H]2c2cccc(F)c2)c1` [Example 34], for which a half-maximal effect (EC50) was put at 244 nM.

For the compound `N#CCCC#Cc1cncc([C@H]2NC(=O)O[C@@H]2c2cccc(F)c2)c1` [Example 35], a half-maximal response (EC50) required 255 nM. Consider `O=C1N[C@H](c2cncc(C#CCN3CCOCC3)c2)[C@@H](c2cccc(F)c2)O1` [Example 36], for which a half-maximal effect (EC50) was put at 291 nM. Regarding `COCC(O)CC#Cc1cncc([C@H]2NC(=O)O[C@@H]2c2cccc(F)c2)c1` (some centres unmarked) [Example 37], the concentration for a half-maximal effect (EC50) is 383 nM. In the case of `O=C1N[C@H](c2cncc(C#CCOC3CCCCO3)c2)[C@@H](c2cccc(F)c2)O1` (some centres unmarked) [Example 38], a half-maximal effect (EC50) was put at 498 nM. Consider `O=C1N[C@H](c2cncc(C#CC3(O)CCCC3)c2)[C@@H](c2cccc(F)c2)O1` [Example 39], for which the EC50 came out at 510 nM. The same measure for `CC(C)(O)CC#Cc1cncc([C@H]2NC(=O)O[C@@H]2c2cccc(F)c2)c1` [Example 40]: 513 nM; for `O=C1N[C@H](c2cncc(C#CCN3CCCCC3)c2)[C@@H](c2cccc(F)c2)O1` [Example 41]: 730 nM. In the case of `CC(O)CC#Cc1cncc([C@H]2NC(=O)O[C@@H]2c2cccc(F)c2)c1` (some centres unmarked) [Example 42], the half-maximal effective concentration (EC50) is over 1610 nM. Compound `O=C1N[C@H](c2cncc(C#CCc3ccccc3)c2)[C@@H](c2cccc(F)c2)O1` [Example 43] yielded an EC50 of over 1610 nM. Consider `CN(C)CCC#Cc1cncc([C@H]2NC(=O)O[C@@H]2c2cccc(F)c2)c1` [Example 44], for which the EC50 was over 1610 nM.

As for `CC(=O)NCC#Cc1cncc([C@H]2NC(=O)O[C@@H]2c2cccc(F)c2)c1` [Example 45], the concentration giving a half-maximal response (EC50) was over 1610 nM. As to `O=C1N[C@H](c2cncc(C#CCC3(O)CCC3)c2)[C@@H](c2cccc(F)c2)O1` [Example 46], the EC50 is over 1610 nM.

Compound `O=C1N[C@H](c2cncc(C#CCN3CCCC3=O)c2)[C@@H](c2cccc(F)c2)O1` [Example 47] displayed a half-maximal effective concentration (EC50) of over 1610 nM. Take `O=C1N[C@H](c2cncc(C#CCNC(=O)C(F)(F)F)c2)[C@@H](c2cccc(F)c2)O1` [Example 48]: the half-maximal effective concentration (EC50) is over 1610 nM. In turn, `O=C1N[C@H](c2cncc(C#CCn3ncc4ccccc43)c2)[C@@H](c2cccc(F)c2)O1` [Example 49] had a concentration for a half-maximal effect (EC50) of over 1610 nM.

Compound `CC(C)C#Cc1cncc([C@H]2NC(=O)O[C@@H]2c2cccc(F)c2)c1` [Example 50] showed a concentration for a half-maximal effect (EC50) of over 3230 nM. With `CCCCCC#Cc1cncc([C@H]2NC(=O)O[C@@H]2c2cccc(F)c2)c1` [Example 51], the EC50 came out at 8.1 nM.

`O=C1N[C@H](c2cncc(C#CCOCC(F)(F)F)c2)[C@@H](c2cccc(F)c2)O1` [Example 52] came in with a concentration for a half-maximal effect (EC50) of 9.3 nM. Turning to `CCOCC#Cc1cncc([C@H]2NC(=O)O[C@@H]2c2cccc(F)c2)c1` [Example 53], a half-maximal effect (EC50) was put at 16.2 nM. Take `Cc1cnn(CC#Cc2cncc([C@H]3NC(=O)O[C@@H]3c3cccc(F)c3)c2)c1` [Example 54]: the EC50 was determined as 107 nM. The result for `CCOCCC#Cc1cncc([C@H]2NC(=O)O[C@@H]2c2cccc(F)c2)c1` [Example 55] reads 27.8 nM.

Consider `CCCCC(O)C#Cc1cncc([C@H]2NC(=O)O[C@@H]2c2cccc(F)c2)c1` (some centres unmarked) [Example 56], for which the EC50 was 67 nM. In turn, `O=C1N[C@H](c2cncc(C#CC(O)C3CC3)c2)[C@@H](c2cccc(F)c2)O1` (some centres unmarked) [Example 58] came in with a 50% effective concentration (EC50) of 204 nM. The result for `COCC#Cc1cncc([C@H]2NC(=O)O[C@@H]2c2cccc(F)c2)c1` [Example 60] reads 458 nM. With `CC(C)(C)C#Cc1cncc([C@H]2NC(=O)O[C@@H]2c2cccc(F)c2)c1` [Example 61], the EC50 was over 3230 nM.

For `O=C1N[C@H](c2cncc(C#CCn3cccn3)c2)[C@@H](c2cccc(F)c2)O1` [Example 62], the EC50 worked out at 10.9 nM. In the case of `O=C1N[C@H](c2cncc(C#CCC3CCCO3)c2)[C@@H](c2cccc(F)c2)O1` (some centres unmarked) [Example 63], the midpoint of the response, the EC50, lay at 12.4 nM. In turn, `O=C1N[C@H](c2cncc(C#CCC3CCOC3)c2)[C@@H](c2cccc(F)c2)O1` (some centres unmarked) [Example 64] gave a 50% effective concentration (EC50) of 20 nM.
